Patent publication US20230085307A1, “PYRIDAZINONE COMPOUND AND HERBICIDE” (NISSAN CHEMICAL CORPORATION, priority 2019, published 2023)

Experiments:
chickweed [1] = experiment: Test Example 5: herbicidal effect by foliage application, plastic box (Table 20, symbol P); type: in vivo, common chickweed (Stellaria media); details: foliage application, 320 g/ha
Outline: (§1)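 Plants sown in sterilized diluvial soil and grown 14 days in a greenhouse at 25° C to 30° C, then sprayed on the foliage with the compound's emulsion diluted in water to a predetermined herbicide amount. Injury to weeds and crops scored three weeks after application on a visual rating scale.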

southern crabgrass [2] = experiment: Test Example 4: herbicidal effect by soil treatment (Table 19, symbol F); type: in vivo, southern crabgrass (Digitaria ciliaris); details: amount of applied herbicide 320 g/ha
Outline: (§2)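 Seeds were sown in sterilized diluvial soil and covered with about 1.5 cm of soil. An emulsion formulation diluted with water to a predetermined herbicide amount was sprayed evenly onto the soil surface. Plants grew in a greenhouse at 25° C. to 30° C., and the effect was scored three weeks after application using criteria from an earlier test.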

lambsquarters [3] = experiment: Test Example 5: herbicidal effect by foliage application, plastic box (Table 20, symbol O); type: in vivo, lambsquarters (Chenopodium album); details: foliage application, 320 g/ha
Outline: as §1

chickweed [4] = experiment: Test Example 4: herbicidal effect by soil treatment (Table 19, symbol P); type: in vivo, common chickweed (Stellaria media); details: amount of applied herbicide 320 g/ha
Outline: as §2

Chinese sprangletop = experiment: Test Example 3: herbicidal effect by foliage application, Wagner pot (Table 18, symbol D); type: in vivo, chinese sprangletop (Leptochloa chinensis)
Outline: (§3)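 Plants were sown in alluvial soil held under 0.1–0.5 cm standing water and grown 14 days in a greenhouse at 25–30 °C. An emulsifiable formulation, water-diluted to the set dose, was then sprayed onto the foliage, and effects were scored three weeks later using previously defined criteria.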

green foxtail [5] = experiment: Test Example 4: herbicidal effect by soil treatment (Table 19, symbol G); type: in vivo, green foxtail (Setaria viridis); details: amount of applied herbicide 320 g/ha
Outline: as §2

persian speedwell [6] = experiment: Test Example 4: herbicidal effect by soil treatment (Table 19, symbol R); type: in vivo, Persian speedwell (Veronica persica); details: amount of applied herbicide 320 g/ha
Outline: as §2

southern crabgrass [7] = experiment: Test Example 5: herbicidal effect by foliage application, plastic box (Table 20, symbol F); type: in vivo, southern crabgrass (Digitaria ciliaris); details: foliage application, 320 g/ha
Outline: as §1

wild oat [8] = experiment: Test Example 5: herbicidal effect by foliage application, plastic box (Table 20, symbol I); type: in vivo, wild oat (Avena fatua); details: foliage application, 320 g/ha
Outline: as §1

false cleavers [9] = experiment: Test Example 4: herbicidal effect by soil treatment (Table 19, symbol Q); type: in vivo, false cleavers (Galium spurium); details: amount of applied herbicide 320 g/ha
Outline: as §2

barnyard grass [10] = experiment: Test Example 4: herbicidal effect by soil treatment (Table 19, symbol H); type: in vivo, barnyard grass (Echinochloa crus-galli); details: amount of applied herbicide 320 g/ha
Outline: as §2

barnyard grass [11] = experiment: Test Example 5: herbicidal effect by foliage application, plastic box (Table 20, symbol H); type: in vivo, barnyard grass (Echinochloa crus-galli); details: foliage application, 320 g/ha
Outline: as §1

green foxtail [12] = experiment: Test Example 5: herbicidal effect by foliage application, plastic box (Table 20, symbol G); type: in vivo, green foxtail (Setaria viridis); details: foliage application, 320 g/ha
Outline: as §1

redroot pigweed [13] = experiment: Test Example 4: herbicidal effect by soil treatment (Table 19, symbol N); type: in vivo, redroot pigweed (Amaranthus retroflexus); details: amount of applied herbicide 320 g/ha
Outline: as §2

Italian ryegrass [14] = experiment: Test Example 4: herbicidal effect by soil treatment (Table 19, symbol K); type: in vivo, Italian ryegrass (Lolium multiflorum); details: amount of applied herbicide 320 g/ha
Outline: as §2

blackgrass [15] = experiment: Test Example 4: herbicidal effect by soil treatment (Table 19, symbol J); type: in vivo, blackgrass (Alopecurus myosuroides); details: amount of applied herbicide 320 g/ha
Outline: as §2

velvetleaf [16] = experiment: Test Example 4: herbicidal effect by soil treatment (Table 19, symbol M); type: in vivo, velvetleaf (Abutilon theophrasti); details: amount of applied herbicide 320 g/ha
Outline: as §2

windgrass [17] = experiment: Test Example 5: herbicidal effect by foliage application, plastic box (Table 20, symbol L); type: in vivo, windgrass (Apera spica-venti); details: foliage application, 320 g/ha
Outline: as §1

Italian ryegrass [18] = experiment: Test Example 5: herbicidal effect by foliage application, plastic box (Table 20, symbol K); type: in vivo, Italian ryegrass (Lolium multiflorum); details: foliage application, 320 g/ha
Outline: as §1

rice flat sedge = experiment: Test Example 3: herbicidal effect by foliage application, Wagner pot (Table 18, symbol E); type: in vivo, rice flat sedge (Cyperus iria)
Outline: as §3

persian speedwell [19] = experiment: Test Example 5: herbicidal effect by foliage application, plastic box (Table 20, symbol R); type: in vivo, Persian speedwell (Veronica persica); details: foliage application, 320 g/ha
Outline: as §1

barnyard grass [20] = experiment: Test Example 3: herbicidal effect by foliage application, Wagner pot (Table 18, symbol H); type: in vivo, barnyard grass (Echinochloa crus-galli)
Outline: as §3

false cleavers [21] = experiment: Test Example 5: herbicidal effect by foliage application, plastic box (Table 20, symbol Q); type: in vivo, false cleavers (Galium spurium); details: foliage application, 320 g/ha
Outline: as §1

lambsquarters [22] = experiment: Test Example 4: herbicidal effect by soil treatment (Table 19, symbol O); type: in vivo, lambsquarters (Chenopodium album); details: amount of applied herbicide 320 g/ha
Outline: as §2

blackgrass [23] = experiment: Test Example 5: herbicidal effect by foliage application, plastic box (Table 20, symbol J); type: in vivo, blackgrass (Alopecurus myosuroides); details: foliage application, 320 g/ha
Outline: as §1

wild oat [24] = experiment: Test Example 4: herbicidal effect by soil treatment (Table 19, symbol I); type: in vivo, wild oat (Avena fatua); details: amount of applied herbicide 320 g/ha
Outline: as §2

redroot pigweed [25] = experiment: Test Example 5: herbicidal effect by foliage application, plastic box (Table 20, symbol N); type: in vivo, redroot pigweed (Amaranthus retroflexus); details: foliage application, 320 g/ha
Outline: as §1

windgrass [26] = experiment: Test Example 4: herbicidal effect by soil treatment (Table 19, symbol L); type: in vivo, windgrass (Apera spica-venti); details: amount of applied herbicide 320 g/ha
Outline: as §2

velvetleaf [27] = experiment: Test Example 5: herbicidal effect by foliage application, plastic box (Table 20, symbol M); type: in vivo, velvetleaf (Abutilon theophrasti); details: foliage application, 320 g/ha
Outline: as §1

[28] = evaluated three weeks after application
[29] = amount of applied herbicide 320 g/ha

CCCC(=O)Oc1c(C)nn(C)c(=O)c1-c1c(-c2cc(F)ccc2OC)sc2ccc(C)cc12 [2-151]
herbicidal effect on P: chickweed (criteria 0-5) (chickweed [1]; [28]): 4 (Herbicidal rate of 70% or more and less than 90%) | F: southern crabgrass, herbicidal effect rating (southern crabgrass [2]): 0 (Herbicidal rate of 5% or less (almost no effect)) | herbicidal effect on O: lambsquarters (criteria 0-5) (lambsquarters [3]; [28]): 2 (Herbicidal rate of 20% or more and less than 40%) | P: chickweed, herbicidal effect rating (chickweed [4]): 1 (Herbicidal rate of 5% or more and less than 20%) | herbicidal effect on D: Chinese sprangletop (Chinese sprangletop; [29]): 0 (Herbicidal rate of 5% or less (almost no effect)) | G: green foxtail, herbicidal effect rating (green foxtail [5]): 0 (Herbicidal rate of 5% or less (almost no effect)) | R: persian speedwell, herbicidal effect rating (persian speedwell [6]): 3 (Herbicidal rate of 40% or more and less than 70%) | herbicidal effect on F: southern crabgrass (criteria 0-5) (southern crabgrass [7]; [28]): 0 (Herbicidal rate of 5% or less (almost no effect)) | herbicidal effect on I: wild oat (criteria 0-5) (wild oat [8]; [28]): 0 (Herbicidal rate of 5% or less (almost no effect)) | Q: false cleavers, herbicidal effect rating (false cleavers [9]): 0 (Herbicidal rate of 5% or less (almost no effect)) | H: barnyard grass, herbicidal effect rating (barnyard grass [10]): 0 (Herbicidal rate of 5% or less (almost no effect)) | herbicidal effect on H: barnyard grass (criteria 0-5) (barnyard grass [11]; [28]): 0 (Herbicidal rate of 5% or less (almost no effect)) | herbicidal effect on G: green foxtail (criteria 0-5) (green foxtail [12]; [28]): 0 (Herbicidal rate of 5% or less (almost no effect)) | N: redroot pigweed, herbicidal effect rating (redroot pigweed [13]): 4 (Herbicidal rate of 70% or more and less than 90%) | K: Italian ryegrass, herbicidal effect rating (Italian ryegrass [14]): 0 (Herbicidal rate of 5% or less (almost no effect)) | J: blackgrass, herbicidal effect rating (blackgrass [15]): 0 (Herbicidal rate of 5% or less (almost no effect)) | M: velvetleaf, herbicidal effect rating (velvetleaf [16]): 0 (Herbicidal rate of 5% or less (almost no effect)) | herbicidal effect on L: windgrass (criteria 0-5) (windgrass [17]; [28]): 0 (Herbicidal rate of 5% or less (almost no effect)) | herbicidal effect on K: Italian ryegrass (criteria 0-5) (Italian ryegrass [18]; [28]): 0 (Herbicidal rate of 5% or less (almost no effect)) | herbicidal effect on E: rice flat sedge (rice flat sedge; [29]): 3 (Herbicidal rate of 40% or more and less than 70%) | herbicidal effect on R: persian speedwell (criteria 0-5) (persian speedwell [19]; [28]): 4 (Herbicidal rate of 70% or more and less than 90%) | herbicidal effect on H: barnyard grass (barnyard grass [20]; [29]): 3 (Herbicidal rate of 40% or more and less than 70%) | herbicidal effect on Q: false cleavers (criteria 0-5) (false cleavers [21]; [28]): 2 (Herbicidal rate of 20% or more and less than 40%) | O: lambsquarters, herbicidal effect rating (lambsquarters [22]): 4 (Herbicidal rate of 70% or more and less than 90%) | herbicidal effect on J: blackgrass (criteria 0-5) (blackgrass [23]; [28]): 0 (Herbicidal rate of 5% or less (almost no effect)) | I: wild oat, herbicidal effect rating (wild oat [24]): 0 (Herbicidal rate of 5% or less (almost no effect)) | herbicidal effect on N: redroot pigweed (criteria 0-5) (redroot pigweed [25]; [28]): 3 (Herbicidal rate of 40% or more and less than 70%) | L: windgrass, herbicidal effect rating (windgrass [26]): 0 (Herbicidal rate of 5% or less (almost no effect)) | herbicidal effect on M: velvetleaf (criteria 0-5) (velvetleaf [27]; [28]): 1 (Herbicidal rate of 5% or more and less than 20%)

COc1ccc2c(-c3c(O)c(C)nn(C)c3=O)c(-c3ccc(F)cc3)sc2c1 [3-063]
P: chickweed, herbicidal effect grade (chickweed [1]; three weeks after application): 5 (Herbicidal rate of 90% or more (almost completely withered)) | F: southern crabgrass, herbicidal effect grade (southern crabgrass [2]): 0 (Herbicidal rate of 5% or less (almost no effect)) | O: lambsquarters, herbicidal effect grade (lambsquarters [3]; three weeks after application): 3 (Herbicidal rate of 40% or more and less than 70%) | P: chickweed, herbicidal effect grade (chickweed [4]): 5 (Herbicidal rate of 90% or more (almost completely withered)) | herbicidal effect on Chinese sprangletop (D) (Chinese sprangletop; 320 g/ha): 0 (Herbicidal rate of 5% or less (almost no effect)) | G: green foxtail, herbicidal effect grade (green foxtail [5]): 0 (Herbicidal rate of 5% or less (almost no effect)) | R: persian speedwell, herbicidal effect grade (persian speedwell [6]): 5 (Herbicidal rate of 90% or more (almost completely withered)) | F: southern crabgrass, herbicidal effect grade (southern crabgrass [7]; three weeks after application): 0 (Herbicidal rate of 5% or less (almost no effect)) | I: wild oat, herbicidal effect grade (wild oat [8]; three weeks after application): 2 (Herbicidal rate of 20% or more and less than 40%) | Q: false cleavers, herbicidal effect grade (false cleavers [9]): 2 (Herbicidal rate of 20% or more and less than 40%) | H: barnyard grass, herbicidal effect grade (barnyard grass [10]): 0 (Herbicidal rate of 5% or less (almost no effect)) | H: barnyard grass, herbicidal effect grade (barnyard grass [11]; three weeks after application): 0 (Herbicidal rate of 5% or less (almost no effect)) | G: green foxtail, herbicidal effect grade (green foxtail [12]; three weeks after application): 0 (Herbicidal rate of 5% or less (almost no effect)) | N: redroot pigweed, herbicidal effect grade (redroot pigweed [13]): 3 (Herbicidal rate of 40% or more and less than 70%) | K: Italian ryegrass, herbicidal effect grade (Italian ryegrass [14]): 0 (Herbicidal rate of 5% or less (almost no effect)) | J: blackgrass, herbicidal effect grade (blackgrass [15]): 0 (Herbicidal rate of 5% or less (almost no effect)) | M: velvetleaf, herbicidal effect grade (velvetleaf [16]): 2 (Herbicidal rate of 20% or more and less than 40%) | L: windgrass, herbicidal effect grade (windgrass [17]; three weeks after application): 2 (Herbicidal rate of 20% or more and less than 40%) | K: Italian ryegrass, herbicidal effect grade (Italian ryegrass [18]; three weeks after application): 3 (Herbicidal rate of 40% or more and less than 70%) | herbicidal effect on rice flat sedge (E) (rice flat sedge; 320 g/ha): 5 (Herbicidal rate of 90% or more (almost completely withered)) | R: persian speedwell, herbicidal effect grade (persian speedwell [19]; three weeks after application): 5 (Herbicidal rate of 90% or more (almost completely withered)) | herbicidal effect on barnyard grass (H) (barnyard grass [20]; 320 g/ha): 0 (Herbicidal rate of 5% or less (almost no effect)) | Q: false cleavers, herbicidal effect grade (false cleavers [21]; three weeks after application): 5 (Herbicidal rate of 90% or more (almost completely withered)) | O: lambsquarters, herbicidal effect grade (lambsquarters [22]): 5 (Herbicidal rate of 90% or more (almost completely withered)) | J: blackgrass, herbicidal effect grade (blackgrass [23]; three weeks after application): 0 (Herbicidal rate of 5% or less (almost no effect)) | I: wild oat, herbicidal effect grade (wild oat [24]): 1 (Herbicidal rate of 5% or more and less than 20%) | N: redroot pigweed, herbicidal effect grade (redroot pigweed [25]; three weeks after application): 4 (Herbicidal rate of 70% or more and less than 90%) | L: windgrass, herbicidal effect grade (windgrass [26]): 0 (Herbicidal rate of 5% or less (almost no effect)) | M: velvetleaf, herbicidal effect grade (velvetleaf [27]; three weeks after application): 5 (Herbicidal rate of 90% or more (almost completely withered))
